Source: US8247449B2, “Methods and compositions for the treatment of asthma” (Wake Forest University, priority 1998, dated 2012)
“Also recorded” adds a separate entry of the source. Where two headings read alike, the source gives them in different places.

Key:
[1] = tested on: leukotriene generation by stimulated neutrophils; assay: Inhibition of leukotriene generation in A23187-stimulated neutrophils in vitro; format: cell-based, human; conditions: neutrophils from unsupplemented volunteers, ionophore A23187, read-out: IC50 of inhibition of leukotriene generation (LTB4 and 20-OH LTB4)
Method: (§1) Leukotrienes are separated by reverse phase HPLC utilizing an Ultrasphere ODS column (2.1 mm.×250 mm: Rainin Instrument Co, Woburn, Mass.) eluted with methanol/water/phosphoric acid (550:450:0.2 v/v, pH 5.7) as the mobile phase at 0.3 ml/min. After 5 min the methanol composition of the mobile phase is increased from 55% to 100% over a 20 min period. The mole quantities of each leukotriene are determined by examining its UV optical density at 270 nm. Individual peaks are integrated and their recoveries normalized by comparing these integrated areas to that of PGB2 added as an internal standard.
It is contemplated that neutrophils may also produce 8-hydroxy-9,11,14 […] from DGLA. […] Studies were also designed to examine whether 15-HETrE produced by neutrophils might influence LTB4 generation. […] Neutrophils were isolated from normal unsupplemented volunteers and were treated with various concentrations of 15-HETrE and then stimulated with ionophore A23187.

human neutrophils [2] = assay: In vitro metabolism of stearidonic acid in cultured human neutrophils; format: cell-based; conditions: 24 h
Source text: As described above, human neutrophils (in vitro in overnight culture) will take up GLA and elongate it to DGLA but not further desaturate that DGLA to AA. An alternative route to depleting AA in neutrophils may also be useful in modulating the inflammatory responses mediated by AA and its metabolites. It was contemplated that the n-3 fatty acid, stearidonic acid (18:4) would also be elongated in neutrophils to form ω-3 arachidonic acid (FIG. 1). Varying concentrations of stearidonic acid were provided to cultured neutrophils for 24 h. Lipids were extracted and the quantities of fatty acids determined after base hydrolysis using GC/MS.

[3] = tested on: Δ^5 desaturase in human liver cell line HEP-G2; assay: Inhibition of DGLA conversion to AA (Δ5 desaturase) in HEP-G2 liver cells; format: cell-based; conditions: HepG2, HEP-G2, EPA at 50 μM added with DGLA, read-out: maximum inhibition of DGLA conversion to AA
Source text: This study illustrates the effectiveness of adding a Δ^5 desaturase inhibitor in conjunction with GLA in order to reduce serum arachidonic acid.

atopic asthmatics [4] = assay: Inhaled antigen challenge model of atopic asthma with prednisone; format: in vivo, human; conditions: 40 mg prednisone daily for 7 days
Source text: Clinical data on each patient is entered into a database consisting of the following elements. Demographic data (age, sex, race, smoking history), and the data elements used to fulfill the above diagnostic criteria, spirometric data, presence of atopy (positive “prick” skin testing to respirable antigens), presence of LAR to inhaled antigen, and presence of allergic rhinoconjunctivitis. • Allergen skin testing—Atopic asthmatic subjects are identified by skin testing using the skin prick method at a 1:10 (wt/vol) dilution of 20 stock antigen solutions (Greer Laboratories, Lenoir, N.C.). Subjects must not be receiving immunotherapy, nor may they be treated with systemic corticosteroids for a minimum of 4 wk. Short acting antihistamines are avoided for at least 24 h and long acting for at least 7 days. […] Antigenic challenge generally begins between 7:30 and 8:00 am and the patient is monitored for a minimum of 12 h following antigenic challenge. […] Following each concentration, the FEV1 is measured at 5 min intervals (DS Plus, Warren E. Collins, Inc., Braintree, Mass.). […] Once a 20% drop in FEV1 is measured, or following the highest concentration, spirometry is performed every 15 min for the first hour and then hourly for the next 11 h.

human neutrophils [5] = assay: In vitro metabolism of GLA / DGLA in cultured human neutrophils; format: cell-based
Method: It is generally assumed that the liver has a key role in the in vivo elongation and desaturation of n-6 fatty acids. However, the role of other cells (especially inflammatory cells) and tissues has not been extensively studied. In addition, it is critical to evaluate the mechanism of leukotriene inhibition in less complex (than in vivo model) systems. To begin to address these problems, the inventor developed a model in which neutrophils could be incubated long-term with fatty acids or other fatty acid derivatives. Human neutrophils have been isolated and cultured overnight in RPMI, 2% insulin-transferrin and fetal bovine serum (FBS). In initial studies, varying concentrations of GLA (complexed to albumin) were provided to these cultured neutrophils for 24 h. […] In contrast, there was no change in the quantity of AA in neutrophil phospholipids. […] Furthermore, they provide direct evidence that the neutrophils themselves can elongate GLA […].
It has been long recognized that arachidonate is hydrolyzed from membrane glycerolipids by phospholipase A2 isotypes during cell stimulation. However, to date, there is little direct evidence that similar mechanisms exist to mobilize DGLA. To examine this question, neutrophils that had been cultured with varying concentrations of GLA (0 to 200 nmol) were stimulated with ionophore A23187, and mobilized fatty acids were measured by NICI GC/MS. […] To determine if neutrophils can further metabolize DGLA to oxygenated products, stimulated cells were provided [^14C]-DGLA and products were measured by reverse HPLC. […] FIG. 11 illustrates that A23187 stimulated neutrophils produce a labeled product that migrated with 15-HETrE.

neutrophils [6] = conditions: 3.0 g/day GLA
Method: as §1
To examine this question, neutrophils were stimulated and the synthesis of LTB4, 20-OH LTB4, and the 6 trans isomers of LTB4 were measured by reverse phase HPLC analysis.

neutrophils [7] = conditions: 3.0 g/day GLA; remark: listed apart in the source
Source text: A final set of studies measured changes in the capacity of neutrophils to generate PAF ex vivo before and after GLA supplementation.

human eosinophils = conditions: eosinophils from atopic subjects incubated with GLA
Method: Eosinophils are purified by negative, immunomagnetic selection using monoclonals against FcKRIII (CD 16) present on neutrophils. Antibody tagged neutrophils are then incubated with anti-mouse IgG conjugated magnetic beads and removed by filtration over a magnetized steel wool column.
Therefore, it was important to determine how GLA was metabolized by human eosinophils. Thus, eosinophils were isolated from atopic subjects and incubated with GLA as described above.

[8] = in vivo
Method: Serum is extracted from 2 ml of venous blood from donors. Briefly, blood samples are incubated at 37° C. for 30 min. Blood clots are removed from the serum by centrifugation (600×g, 10 min). Residual red blood cells are removed from the serum by centrifugation using a Beckman Microfuge E for 5 min. After the addition of 1.9 ml of water to a 0.1 ml aliquot of the serum, lipids are extracted by the method of Bligh and Dyer (Bligh and Dyer, Can. J. Biochem. Physiol., 37:911-920, 1959); Chilton et al., J. Biol. Chem., 258:7268-7271, 1983). A portion (5%) of the extracted lipids is used to determine the mole quantities of fatty acids by GC/MS. Serum components are isolated into individual glycerolipid classes by TLC (System II or normal phase HPLC (Bligh and Dyer, 1959).
Free fatty acids are obtained from glycerolipids by base hydrolysis using 2 N KOH (30 min, 60° C.). […] The carboxylate anion of all fatty acids of interest and [^2H3]-stearic acid and [^2H8]-arachidonate (internal standard) are analyzed by NICI GC/MS using a Hewlett Packard mass spectrometer (HP 5989A). […]
The next set of studies was designed to determine the distribution of supplemented fatty acids or their metabolites within individual glycerolipid classes of serum. […] Serum glycerolipids were separated by TLC and fractions were analyzed for fatty acid content following base hydrolysis by NICI-GC/MS.

atopic asthmatics [9] = tested on: atopic asthmatics
Source text: Clinical data on each patient is entered into a database consisting of the following elements. Demographic data (age, sex, race, smoking history), and the data elements used to fulfill the above diagnostic criteria, spirometric data, presence of atopy (positive “prick” skin testing to respirable antigens), presence of LAR to inhaled antigen, and presence of allergic rhinoconjunctivitis. • Allergen skin testing—Atopic asthmatic subjects are identified by skin testing using the skin prick method at a 1:10 (wt/vol) dilution of 20 stock antigen solutions (Greer Laboratories, Lenoir, N.C.). Subjects must not be receiving immunotherapy, nor may they be treated with systemic corticosteroids for a minimum of 4 wk. Short acting antihistamines are avoided for at least 24 h and long acting for at least 7 days. Atopic subjects are defined as those with a positive response consisting of a wheal of at least 3 by 3 mm to one or more antigens, with an appropriately negative saline control. • Allergen Inhalation Challenge—The immediate (early) asthmatic response (EAR) or late asthmatic response (LAR) is studied under controlled conditions using inhaled antigenic challenge in volunteer patients with asthma using a previously described protocol (Smith et al., Clin. Pharm. Ther., 54:430-436, 1993). Atopic asthmatics undergo inhaled allergen challenge followed by BAL according to the following protocol. Subjects must have no lung disease other than asthma, and, on the day of testing, must have a baseline FEV1>70% of predicted. Subjects must not be receiving immunotherapy, nor may they be treated with cromolyn sodium or corticosteroids (inhaled or systemic) or leukotriene antagonist for a minimum of 4 wk. Short-acting antihistamines are avoided for at least 24 h and intermediate acting for 7 days (astemizole for 6 weeks). Theophylline preparations are withheld for 24 h prior to challenge and beta-agonists for 8 h prior to challenge. On the day of challenge, subjects must be wheeze-free, with an FEV1>than 80% of the previously observed highest value. If the patient has an intercurrent respiratory infection, inhalation challenge is postponed for at least 6 wk. Antigens to which the subject is perennially exposed (e.g., mite, cat) are utilized whenever possible to minimize the impact of seasonal variations in environmental exposure to the specific antigen. Further, antigen testing is conducted out of the respective allergen season, or after attempts to minimize environmental exposure (e.g., to mites or cats) have been implemented. Antigenic challenge generally begins between 7:30 and 8:00 am and the patient is monitored for a minimum of 12 h following antigenic challenge. […] The subject breathes quietly from a continuous hand-held nebulizer for 2 min at each concentration. Following each concentration, the FEV1 is measured at 5 min intervals (DS Plus, Warren E. Collins, Inc., Braintree, Mass.). […] Once a 20% drop in FEV1 is measured, or following the highest concentration, spirometry is performed every 15 min for the first hour and then hourly for the next 11 h.

neutrophils [10] = tested on: neutrophils
Method: Free fatty acids are obtained from glycerolipids by base hydrolysis using 2 N KOH (30 min, 60° C.). After the addition of an equal volume of water, the pH of the reaction mixture is adjusted to 3 using 6 N HCl. Free fatty acids are then extracted with ethyl ether and converted to pentafluorobenzylesters using an equal volume of 20% pentafluorobenzylchloride in acetonitrile and 20% diisopropylethylamine in acetonitrile. The carboxylate anion of all fatty acids of interest and [^2H3]-stearic acid and [^2H8]-arachidonate (internal standard) are analyzed by NICI GC/MS using a Hewlett Packard mass spectrometer (HP 5989A).
Neutrophils were next obtained from subjects before and after supplementation and stimulated with ionophore A23187.

[11] = 4.5 g GLA as borage oil, 3 weeks, contemplated

SMILES: CCCCCC(O)/C=C/C=C\C/C=C\CCCCCCC(=O)O (centres unmarked) [15-HETrE, 15-OH-20:3, reference compound]
- IC50 [1]: ~5 µM

SMILES: CC/C=C\C/C=C\C/C=C\C/C=C\CCCCC(=O)O [stearidonic acid]
- AA in neutrophils (human neutrophils [2]): nor was there an increase
- eicosapentaenoic acid (Δ5 desaturase product of ω-3 arachidonic acid) in neutrophils (human neutrophils [2]): no increase
- ω-3 arachidonic acid in neutrophil glycerolipids (human neutrophils [2]; varying concentrations of stearidonic acid): dose-dependent increase; also recorded: dramatic increase

SMILES: CC/C=C\C/C=C\C/C=C\C/C=C\C/C=C\CCCC(=O)O [EPA, eicosapentaenoic acid]
- inhibition at 50 µM [3]: 50%

SMILES: C[C@]12C=CC(=O)C=C1CC[C@@H]1[C@@H]2C(=O)C[C@@]2(C)[C@H]1CC[C@]2(O)C(=O)CO [prednisone]
- immediate response and LAR (fall in FEV1) after antigen challenge (atopic asthmatics [4]): ablated
- level of eosinophil cationic protein (ECP) in BALF after antigen challenge (atopic asthmatics [4]; p=0.03): suppressed

SMILES: CCCCC/C=C\C/C=C\C/C=C\CCCCC(=O)O [GLA, gammalinolenic acid]
- quantity of DGLA in neutrophil glycerolipids (human neutrophils [5]; cultured neutrophils, varying concentrations of GLA complexed to albumin, 24 h): increased as a function of the concentration of GLA
- quantity of AA in neutrophil phospholipids (human neutrophils [5]; cultured neutrophils, varying concentrations of GLA, 24 h): no change
- fatty acids mobilized on A23187 stimulation (human neutrophils [5]; neutrophils cultured with GLA (0 to 200 nmol)): DGLA along with AA were released
- 20-OH LTB4, 6-trans LTB4 and 6-trans 12-epi LTB4 levels after supplementation (neutrophils [6]): decreased to a similar degree
- reduction in LTB4 produced by stimulated neutrophils vs before supplementation (neutrophils [6]): 60%
- reduction in PAF produced by neutrophils vs before supplementation (neutrophils [7]): 40%
- DGLA in eosinophil glycerolipids (human eosinophils): marked increase
- quantity of AA in eosinophil glycerolipids (human eosinophils): no change
- AA in serum lipids vs baseline [8]: significantly increased
- antigen-induced urinary LTE4 and BALF AA increases (atopic asthmatics [9]; [11]): attenuate
- influx of eosinophils into airways during the LAR (atopic asthmatics [9]; [11]): reduce
- response to antigen challenge (decrements in FEV1, immediate and late) (atopic asthmatics [9]; [11]): mitigate
- magnitude of the early asthmatic response (atopic asthmatics [9]; four weeks GLA supplementation, compared to pre- and post-supplementation, two subjects): diminished
- late asthmatic response (atopic asthmatics [9]; four weeks GLA supplementation, two subjects): did not influence
- increase in release of DGLA from stimulated neutrophils (neutrophils [10]; 1.5 g/day GLA): 63%
- increase in release of DGLA from stimulated neutrophils (neutrophils [10]; 3.0 g/day GLA): 65%
- increase in release of DGLA from stimulated neutrophils (neutrophils [10]; 6.0 g/day GLA): 69%
- release of AA from neutrophil glycerolipids after A23187 stimulation (neutrophils [10]; following GLA supplementation): did not change

SMILES: CCCCC/C=C\C/C=C\C/C=C\CCCCCCC(=O)O [DGLA, dihomogammalinolenic acid]
- IC50 ([1]; Homo sapiens, Neutrophil): ~10 µM
